Assay type in all cases: cell-based
In test [1] the test system is human peripheral blood mononuclear cells (hPBMCs). Kind of test: IFN-α induction in hPBMCs. The settings on record: 24 h. As for the experimental part:
(§1) Assays to Measure Cytokine Induction
(§2) Test compounds were evaluated for cytokine induction in human peripheral blood mononuclear cells (hPBMCs).
(§3) Primary human PBMCs were isolated from fresh blood from healthy donors via Ficoll gradient separation and plated at 0.5×10^6 cells/well in 96-well tissue culture plates (RPMI-1640 plus 10% FBS). hPBMCs were maintained with RPMI-1640 culture media (Invitrogen, Grand Island, N.Y.), antibiotics (Invitrogen) and 10% FBS (Sigma).
(§4) Incubation and Assays for IFN-γ, IFN-α and TNF-α
(§5) hPBMCs were stimulated for 24 h with aqueous formulations of test compounds. Culture supernatants were analyzed for TNF-α and IFN-γ induction using multiplex kits (FluoroKine multiplex kits from R&D Systems, Minneapolis, Minn.) and for IFN-α induction using human IFN-α VeriKine ELISA kit (Pestka Biomedical Laboratories, Inc., Piscataway, N.J.).

For another test, the target named is T1, human TLR7 (Homo sapiens, UniProt Q9NYK1).
T1 construct: host or cells: HEK293
T1 sequence (Q9NYK1 27-1049): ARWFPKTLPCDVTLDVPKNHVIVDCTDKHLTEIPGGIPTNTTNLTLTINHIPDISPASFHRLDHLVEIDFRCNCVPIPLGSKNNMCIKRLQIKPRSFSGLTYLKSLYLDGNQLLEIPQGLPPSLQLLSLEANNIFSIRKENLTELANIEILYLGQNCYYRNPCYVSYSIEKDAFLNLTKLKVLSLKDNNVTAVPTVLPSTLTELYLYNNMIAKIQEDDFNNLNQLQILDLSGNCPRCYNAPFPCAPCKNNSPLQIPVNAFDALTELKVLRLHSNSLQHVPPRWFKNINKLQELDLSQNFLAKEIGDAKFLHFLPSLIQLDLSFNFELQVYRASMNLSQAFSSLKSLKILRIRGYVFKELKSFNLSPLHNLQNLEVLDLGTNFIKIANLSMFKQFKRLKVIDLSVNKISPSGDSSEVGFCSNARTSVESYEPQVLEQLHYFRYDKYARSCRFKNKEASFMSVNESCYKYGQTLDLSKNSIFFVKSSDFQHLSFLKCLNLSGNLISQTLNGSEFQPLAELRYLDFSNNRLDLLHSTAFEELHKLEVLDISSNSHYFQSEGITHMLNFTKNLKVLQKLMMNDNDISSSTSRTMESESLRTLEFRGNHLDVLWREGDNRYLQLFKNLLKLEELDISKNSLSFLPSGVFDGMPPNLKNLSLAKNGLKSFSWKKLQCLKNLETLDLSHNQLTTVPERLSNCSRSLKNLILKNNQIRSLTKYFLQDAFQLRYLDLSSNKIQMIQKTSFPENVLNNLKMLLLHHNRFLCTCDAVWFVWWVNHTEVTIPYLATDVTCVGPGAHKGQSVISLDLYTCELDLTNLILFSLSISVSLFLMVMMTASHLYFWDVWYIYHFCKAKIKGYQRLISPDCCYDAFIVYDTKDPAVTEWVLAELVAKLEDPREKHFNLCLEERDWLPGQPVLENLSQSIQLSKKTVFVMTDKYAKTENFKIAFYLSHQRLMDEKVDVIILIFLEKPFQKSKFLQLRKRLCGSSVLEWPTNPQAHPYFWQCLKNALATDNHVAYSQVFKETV
Kind of test: hTLR7 agonist reporter assay in HEK293 cells (NFκB-SEAP). As to conditions: for EC50: read-out: hTLR7 ED50; for hTLR7/8 ratio: hTLR7 ED50 over hTLR8 ED50. As for the experimental part: Assay for hTLR7 and hTLR8 Agonist Activity in HEK-293 Cells
Determination of TLR agonist activity was performed using the HEK293 […]. This assay measures TLR7 and TLR8 selectivity and potency of the compounds tested. HEK293 cells expressing human TLR7 or TLR8 and NFκB responsive Secreted Embryonic Alkaline Phosphatase (SEAP) reporter gene were obtained from InvivoGen (San Diego, Calif.). These cells were maintained in culture media of Dulbecco's Modified Eagle Medium (DMEM) (Invitrogen, Grand Island, N.Y.), 10% Fetal Bovine Serum (FBS) (Sigma, St. Louis, Mo.) and selection antibiotics (Invitrogen, and Invivogen). HEK293 stably transfected with human TLR7 (hTLR7) or human TLR8 (hTLR8) were stimulated for 24 h with aqueous formulations of test compounds and culture supernatants were analyzed for NFκB activation using the colorimetric SEAP detection kit QuantBlue (InvivoGen).
(In general: A reporter such as luciferase makes a cellular process visible.)

In test [2] the test system is human peripheral blood mononuclear cells (hPBMCs). Kind of test: TNF-α induction in hPBMCs. The settings on record: 24 h. The protocol:
as §1, §2, §3, §4, §5

Molecules are shown by their SMILES. Read-outs that look alike come from different tables or passages of the source.

Take `CCCCCCCC/C=C\CCCCCCCC(=O)OC[C@H](COP(=O)(O)OCCOc1ccc2c(c1)nc(N)c1nc(CCCC)n(CCO)c12)OC(=O)CCCCCCC/C=C\CCCCCCCC` [Example 1]: the “IFN-α induction, in words” value in test [1] (FIG. 10) is “equipotent at inducing IFN-α and these were more potent than Comparative Example 1 and Comparative Example 2 in this assay at a lower dose”; in test [1] (FIG. 12, another occasion), “more potent at inducing IFN-α than Comparative Examples 1, 2 and 3”; in test [1] (FIG. 14, another occasion), “very effective at inducing IFN-α”; in test [1] (FIG. 16, another occasion) it was “good activity in inducing IFN-α”. In addition, at human TLR7 (Table 1), the “selectivity hTLR8/hTLR7, in words” value is “notable selectivity for hTLR8/hTLR7”. Also, the EC50 at human TLR7 (Table 1, FIG. 1, 24 h stimulation, aqueous formulations) was 1.06 µM; at human TLR7 (Table 2, FIG. 3, another occasion, * = only very low levels of NFKB activation were detected), 7 µM; on human TLR7 (Table 3, FIG. 5, another occasion, * = only very low levels of NFKB activation were detected), 4.1 µM; on human TLR7 (Table 4, FIG. 7, another occasion), 7 µM. Moreover, the hTLR7/8 ratio came to 11.0 on human TLR7 (Table 1), 8.9 at human TLR7 (Table 2), 6.9 on human TLR7 (Table 3) and 9.9 on human TLR7 (Table 4). Also, the “hTLR7 agonist activity, in words” value was “agonist of both TLR7 and TLR8” on human TLR7 (Table 3, FIG. 5); “significantly more potent as an agonist of hTLR7 and hTLR8 than Comparative Example 2” on human TLR7 (text on Table 1, FIG. 1); “more active than Comparative Example 2 as an agonist of hTLR7 and hTLR8” at human TLR7 (text on Table 2, FIG. 3). For the same compound, the “TNF-α induction, in words” value is “potent at inducing TNF-α” in test [2] (FIG. 13) and “effective at inducing TNF-α” in test [2] (FIG. 15, another occasion).

Source of the values: US11274115B2, “Imidazoquinoline derivatives and their use in therapy” (GLAXOSMITHKLINE BIOLOGICALS SA, priority 2016, dated 2022).
